In one experiment the test system is Candida albicans. Description: Antimicrobial activity against Candida albicans. It is filed as functional.
Experiment [1] in a line: Inhibition of Candida albicans GGTase 1 by streptavidin scintillation proximity assay. For orientation: SPA uses beads or plates that emit light when radiolabelled molecules are held near them.

SMILES strings stand for the structures. In brackets after ≈: the same amount, converted by molar mass.

By MIC is commonly meant the smallest concentration in the dilution series that meets the test's criterion for growth inhibition. Low readings indicate greater potency, high ones weaker potency. A word on the IC50: it is the concentration needed to halve the response being measured. A higher IC50 goes with weaker potency in that assay. Molecule `C#CC(O)/C=C/CCCCCC#CC/C=C\CCCCCCCCCCC/C=C\C#CC(=O)O` (centres undefined) [CORTICATIC ACID A] returned an MIC in the experiment with Candida albicans of 54 µM (≈ 25.1 µg/mL). This molecule also registered a 50% inhibitory concentration (IC50) in experiment [1] of 1.9 µM.

In experiment [1], `C#C[C@H](O)/C=C/CCCCCC#C/C=C/C(O)CCCCCCCCCCC/C=C\C#CC(=O)O` (some centres undefined) [CORTICATIC ACID D] displayed an IC50 of 3.3 µM. `C#C[C@H](O)/C=C/CCCCC/C=C\C/C=C\CCCCCCCCCCC/C=C\C#CC(=O)O` [CORTICATIC ACID E]: the IC50 in experiment [1] was found to be 7.3 µM.

These data come from ChEMBL document CHEMBL1150644, “Corticatic acids D and E, polyacetylenic geranylgeranyltransferase type I inhibitors, from the marine sponge Petrosia corticata” (J Nat Prod, 2002).
